The values that follow come from US8512708B2, “GP96 derived peptides” (Compugen Ltd., priority 2008, dated 2013).

One assay has as its system human PBMCs. Kind of assay: Anti-CD3-induced cytokine release from human PBMCs (Luminex). The class given is cell-based. The conditions noted are these: PBMCs treated with anti-CD3 antibody (1 μg/ml), 48 hours; peptide 30 μg/ml=6 μM (FIG. 2). Here is the method:
Peptides were assayed at two concentrations (3 and 30 ug/mL) in duplicates. Cryopreserved PBMCs were drip-thaw and seeded at 1×10^4 cells/well in 140 μl of media per well. Cells were incubated for 1 hour at 37° C. at 5% CO2 and a peptide of the invention or Dexamethasone as a control, were added in 20 μl of medium. Cells were incubated for 30 minutes and anti-CD3 antibody (1 μg/ml) was added at the appropriate concentration in 40 μl of medium. Plates were incubated for 48 hours, spinned at 1200 rpm for 10 minutes and supernatants were collected and stored at −80° C. Cytokines' concentration was measured using a Luminex analyzer (IS100, Luminex Corporation) and bead-based reagents (Upstate Biotechnology).

Another assay concerns THP-1 cells. The assay can be described thus: LPS-induced TNF-α secretion from THP-1 cells (ELISA). The format is cell-based, human. The conditions noted are these: LPS 100 ng/ml, 4 hours. Background: ELISA stands for enzyme-linked immunosorbent assay.
The test system of the next assay is A549 cells. The class given is cell-based, human. The conditions noted are these: 48 hours, MTT, 0.3-90 μg/ml peptide. Here is the method: A549 cells were seeded at 6000 cells/well in […] of media (DMEM medium+5% FBS) in a 96 well plate and incubated over-night (O.N). Cells were starved in 100 μl of serum free medium (SFM) containing 0.1% FBS, O.N. All lyophilized peptides were dissolved in H2O (prewarmed to 50° C.) and hand-stirred, giving a final concentration of 1 mg/ml. Reconstituted peptides were added in concentrations of 0.3, 1, 3, 10, 30 or 90 μg/ml and the cells were incubated for 48 hours.
Cell proliferation was measured using MTT assay as follows: 20 μl of MTT solution ((3-[4,5-Dimethyl-2-thiazolyl]-2,5-diphenyl-2H-tetrazolium bromide, Sigma Cat#M5655, lot#085k5322, 1 gr was dissolved in 200 ml H2O and filtered, giving a final concentration of 5 mg/ml) were added to each well for 4 hrs, after which the medium was vacuumed and 100 μl of DMSO were added to each well. Absorbance was measured in an ELISA reader at 492 nm. The results are shown in FIG. 8, and depicted in percent relative to untreated cells (which was defined as 100).

Another assay concerns HCT116. Kind of assay: Proliferation of HCT116 cells (MTT assay). The format is cell-based, human. As to conditions: HCT116, 48 hours, 0.003-60 μg/ml peptide. On the procedure:
(§1) Cells were seeded at 5000 cells/well in 200 μl of media (DMEM medium+5% FBS) in a 96 well plate and incubated over-night (O.N). Cells were starved in 100 μl of serum free medium (SFM) containing 0.1% FBS, O.N. All lyophilized peptides were dissolved in H2O (prewarmed to 50° C.) and hand-stirred, giving a final concentration of 1 mg/ml. Reconstituted peptides were added in concentrations of 0.003, 0.009, 0.028, 0.084, 0.25, 0.76, 2.28, 6.66, 20 and 60 μg/ml and the cells were incubated for 48 hours.
(§2) Cell proliferation was measured using MTT assay: 20 μl of MTT solution ((3-[4,5-Dimethyl-2-thiazolyl]-2,5-diphenyl-2H-tetrazolium bromide, Sigma Cat#M5655, lot#085k5322, 1 gr was dissolved in 200 ml H2O and filtered, giving a final concentration of 5 mg/ml) were added to each well for 4 hrs, after which the medium was vacuumed and 100 μl of DMSO were added to each well. Absorbance was measured in an ELISA reader at 492 nm.
(In general: Tetrazolium dyes change colour on reduction, which living cells bring about.)

Another assay relates to SW480. Kind of assay: Proliferation of SW480 cells (MTT assay). The format is cell-based, human. As to conditions: SW480, 48 hours, 0.003-60 μg/ml peptide. On the procedure: as §1, §2
Another assay concerns HT29. The assay can be described thus: Proliferation of HT29 cells (MTT assay). The class given is cell-based, human. As to conditions: HT29, 48 hours, 0.003-60 μg/ml peptide. On the procedure:
as §1, §2

A further assay has as its system MCF7. The assay can be described thus: Proliferation of MCF7 cells (MTT assay). The format is cell-based, human. The conditions noted are these: MCF7, 48 hours, 0.003-60 μg/ml peptide. Here is the method: as §1, §2

Experimental for THP-1 cells: THP-1 cells were seeded at 2×10^5 cells/ml in 100 μl of media (RPMI-1640 medium+10% FBS) in a 96 well plates. The reconstituted peptide at final concentrations of 20, 60, 180, 540, 1620, 4860 or 14580 nM were added to the relevant wells in a volume of 100 μl and LPS at a final concentration of 100 ng/ml (Sigma, Cat # L-6529, Lot #054K4022, stock concentration of 1 mg/ml) was added to the wells in a volume of 100 μl. Plates were incubated for 4 hours and then centrifuged 5 minutes at 4000 rpm. Conditioned medium (200 μl) was transferred to new plates and kept at −20° C. The concentration of TNF-α was measured using TNF-α ELISA (R&D Systems, Human TNF-alpha Quantikine ELISA Kit, Cat # STA00C).
THP-1 cells were seeded at 2×10^5 cells/ml in 100 μl of media (RPMI-1640 medium+10% FBS) in 96 well plates. The reconstituted peptide at final concentrations of 0.3, 1, 10, 30 or 60 μg/ml were added to the relevant wells in a volume of 100 μl and LPS at a final concentration of 100 ng/ml (Sigma, Cat # L-6529, Lot #054K4022, stock concentration of 1 mg/ml) was added to the wells in a volume of 100 Plates were incubated for 4 hours and then centrifuged 5 minutes at 4000 rpm. Conditioned medium (200 μl) was transferred to new plates and kept at −20° C. The concentration of TNF-α was measured using TNF-α ELISA (R&D Systems, Human TNF-alpha Quantikine ELISA Kit, Cat # STA00C).

As to “IYVWSSKTETVEEPMEEEEAAKEEKEESDDEA (Ac-IYVWSSKTETVEEPMEEEEAAKEEKEESDDEA-NH2) [CGEN-GP3]”, in the assay on human PBMCs, the “decrease of IL-1α” value is 30%, the “decrease of IL-1β” value is 60%, the “decrease of IL-2 release” value amounted to 70% and the “decrease of IL-12p40” value stood at 40%. In addition, in the assay on human PBMCs, the “decrease of IL-12p70” value was 70%, the “decrease of TNFα” value was “approximately 30%” and the “inhibition of GM-CSF release” value is given as “no effect”.
Regarding “Ac-HKLLKVIRKKLVRKTLDMIKKIADDKYNDTFWKEF-NH2 [CGEN-GP5]”, in the assay with THP-1 cells (10 μg/ml peptide), the “inhibition of LPS-induced TNF-α secretion” value worked out at 100%. For the same compound, the “inhibition of proliferation, dose dependence” value in the assay on A549 cells, with HCT116, in the assay with SW480, in the assay with HT29 and in the assay on MCF7 was “dose-dependent” each time.
As for `CC[C@H](C)[C@H](NC(=O)[C@H](CCCCN)NC(=O)[C@H](CCCCN)NC(=O)[C@@H](NC(=O)[C@H](CCSC)NC(=O)[C@H](CC(=O)O)NC(=O)[C@H](CC(C)C)NC(=O)[C@@H](NC(=O)[C@H](CCCCN)NC(=O)[C@H](CCCNC(=N)N)NC(=O)[C@@H](NC(=O)[C@H](CC(C)C)NC(=O)[C@H](CCCCN)NC(=O)[C@H](CCCCN)NC(=O)[C@H](CCCNC(=N)N)NC(=O)[C@@H](NC(=O)[C@@H](NC(=O)[C@H](CCCCN)NC(=O)[C@H](CC(C)C)NC(=O)[C@H](CC(C)C)NC(=O)[C@H](CCCCN)NC(=O)[C@H](Cc1c[nH]cn1)NC(=O)[C@H](CCC(N)=O)NC(=O)[C@H](CCC(N)=O)NC(=O)[C@H](CC(C)C)NC(=O)[C@@H](NC(C)=O)[C@@H](C)O)C(C)C)[C@@H](C)CC)C(C)C)[C@@H](C)O)[C@@H](C)CC)C(=O)N[C@@H](C)C(=O)N[C@@H](CC(=O)O)C(=O)N[C@@H](CC(=O)O)C(=O)N[C@@H](CCCCN)C(=O)N[C@@H](Cc1ccc(O)cc1)C(N)=O` [CGEN-GP4], the “inhibition of LPS-induced TNF-α secretion” value with THP-1 cells (30 μg/ml peptide) is listed as 100%. In addition, the “inhibition of proliferation, dose dependence” value with A549 cells is “dose-dependent”.
